# Assay results reported in PubChem BioAssay AID1963985 (Molecular Pharmacology Branch, DTP, NCI, 2024).
# pIC50: −log10 of the molar value. Values joined by “and” are separate entries in the source; they are usually repeats but may differ in a detail not shown here. Identical values can stand only once.
# Tested on: 252836-082-R-J2-PDC tumor spheroids, viability
# Test: Anticancer human tumor 252836-082-R-J2-PDC patient-derived head and neck squamous cell carcinoma cell line growth inhibition [PI3K]
# Settings: spheroids with HUVEC and MSC; for pIC50: curve of first compound; for viability, T/C: stronger effect = lower value
# From the text: Combinatorial screen of targeted agents with the PI3K inhibitors inavolisib, alpelisib, duvelisib, and copanlisib in multi-cell type tumor spheroids
# A high-throughput screen of multi-cell type tumor spheroids was designed to identify active combinations of targeted small molecules and PI3K pathway inhibitors. Complex spheroids include a stromal component modeled by human endothelial cells (HUVEC) and fibroblasts modeled by human mesenchymal stem cells (MSCs). The concentration ranges selected for each drug and investigational agent were based upon clinically achievable concentrations if the clinical Cmax of the agent was known.
# Compounds. The drugs and investigational agents: inavolisib (NSC800729), alpelisib (NSC765974), duvelisib (NSC772469), copanlisib (NSC816437), ipatasertib (NSC767898), afuresertib (NSC778305), talazoparib (NSC767125), sapanisertib (NSC764658), selumetinib (NSC741078), tovorafenib (DAY101, NSC766906), vemurafenib (NSC761431), ravoxertinib (NSC781343), sotorasib (NSC818433), MRTX1133 (NSC 836407), abemaciclib (NSC 768073), palbociclib (NSC758247), venetoclax (NSC 766270), SY5609 (NSC837396), enzalutamide (NSC755605), and darolutamide (NSC825331), were obtained from the National Cancer Institute (NCI) Developmental Therapeutics Program Chemical Repository. The FDA-approved anticancer drug set is available from the NCI Developmental Therapeutics Program. […] The stock solutions were prepared in dimethyl sulfoxide (DMSO, Sigma-Aldrich, St. Louis, MO, cat. D2650) at 800-fold the tested concentration and stored at -70 degrees C prior to their use. All drugs and investigational agents were tested over a range starting from a high concentration at or near the clinical Cmax and decreasing in half-log increments. If the clinical Cmax for an agent had not been determined, the highest concentration tested was 10 microM.
# Cell Culture. All cells were maintained in an incubator at 37 degrees C and 5% CO2 with 95% humidity. The PDC lines were cultured according to standard operating procedures established by the NCI PDMR (https://pdmr.cancer.gov/sops/default.htm). All PDCs were thawed and cultured in Matrigel-coated flasks prepared with a working solution of 1X Ham's F-12 nutrient mix, without supplementation (Invitrogen, Waltham, MA, cat. 11765054), 100 U/mL penicillin-streptomycin (Invitrogen, cat. 15140122), and 2.5% Matrigel (Corning Inc., Corning, NY, cat. 354248) for the first three passages. The 354836-022-R-J1-PDC, 475296-252-R-J1-PDC, and 997726-040-R-J2-PDC lines were cultured in 6A media, which includes advanced DMEM/F-12 (Thermo Fisher Scientific, cat. 12634028), 10 mM HEPES (Thermo Fisher Scientific, cat. 15630080), 1X GlutaMAX supplement (Thermo Fisher Scientific, cat. 35050061), 0.1 mg/mL primocin (InvivoGen, San Diego, CA, cat. ant-pm-2), 10% defined fetal bovine serum, heat inactivated (HyClone Laboratories Inc., Logan, UT, cat. SH30070.03HI), 50% L-WRN conditioned media (ATCC, cat. CRL-3276), 1.25 mM N-Acetyl-L-cysteine (Sigma-Aldrich, cat. A9165), 10 mM nicotinamide (Sigma-Aldrich, cat. N0636), 1X B-27 supplement (Thermo Fisher Scientific, cat. 17504044), 1X N-2 supplement (Thermo Fisher Scientific, cat. 17502048), and 10 microM Y-27632 dihydrochloride (Tocris Bioscience, Bristol, United Kingdom, cat. 1254). The 624824-186-R-J2-PDC line was cultured in 6C/Colon 1B media, which includes all 6A media components plus 50 ng/mL human EGF recombinant protein (Thermo Fisher Scientific, cat. PHG0311). […]
# [1] = second compound 0.00316 µM, first compound 0.0316 µM
# [2] = second compound 0.00316 µM, first compound 0.1 µM
# [3] = second compound 0.00316 µM, first compound 0.316 µM
# [4] = second compound 0.00316 µM, first compound 1 µM
# [5] = second compound 0.00316 µM, first compound 3.16 µM
# [6] = second compound 0.00316 µM, first compound 10 µM
# [7] = second compound 0.01 µM, first compound 0.0316 µM
# [8] = second compound 0.01 µM, first compound 0.1 µM
# [9] = second compound 0.01 µM, first compound 0.316 µM
# [10] = second compound 0.01 µM, first compound 1 µM
# [11] = second compound 0.01 µM, first compound 3.16 µM
# [12] = second compound 0.01 µM, first compound 10 µM
# [13] = second compound 0.0316 µM, first compound 0.0316 µM
# [14] = second compound 0.0316 µM, first compound 0.1 µM
# [15] = second compound 0.0316 µM, first compound 0.316 µM
# [16] = second compound 0.0316 µM, first compound 1 µM
# [17] = second compound 0.0316 µM, first compound 3.16 µM
# [18] = second compound 0.0316 µM, first compound 10 µM
# [19] = second compound 0.1 µM, first compound 0.0316 µM
# [20] = second compound 0.1 µM, first compound 0.1 µM
# [21] = second compound 0.1 µM, first compound 0.316 µM
# [22] = second compound 0.1 µM, first compound 1 µM
# [23] = second compound 0.1 µM, first compound 3.16 µM
# [24] = second compound 0.1 µM, first compound 10 µM
# [25] = second compound 0.316 µM, first compound 0.0316 µM
# [26] = second compound 0.316 µM, first compound 0.1 µM
# [27] = second compound 0.316 µM, first compound 0.316 µM
# [28] = second compound 0.316 µM, first compound 1 µM
# [29] = second compound 0.316 µM, first compound 3.16 µM
# [30] = second compound 0.316 µM, first compound 10 µM
# [31] = second compound 1 µM, first compound 0.0316 µM
# [32] = second compound 1 µM, first compound 0.1 µM
# [33] = second compound 1 µM, first compound 0.316 µM
# [34] = second compound 1 µM, first compound 1 µM
# [35] = second compound 1 µM, first compound 3.16 µM
# [36] = second compound 1 µM, first compound 10 µM
# 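Also: spheroids exposed to agents for seven days before readout.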
# 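For viability, T/C in this document: percent of vehicle DMSO control viability so 100% = untreated growth.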
smiles,measurement,setting,value
CC(Cn1ccc(-c2ccc(C#N)c(Cl)c2)n1)NC(=O)c1cc(C(C)O)[nH]n1 (configuration not stated) + COc1c(OCCCN2CCOCC2)ccc2c3n(c(=NC(=O)c4cnc(N)nc4)nc12)CCN3,pIC50,second compound 0.00316 µM,< 5.00
same,pIC50,second compound 0.01 µM,< 5.00
same,pIC50,second compound 0.0316 µM,< 5.00
same,pIC50,second compound 0.1 µM,> 7.50
same,pIC50,second compound 0.316 µM,> 7.50
same,pIC50,second compound 1 µM,> 7.50
same,"viability, T/C",[1],102%
same,"viability, T/C",[2],90.5%
same,"viability, T/C",[3],101%
same,"viability, T/C",[4],94.4%
same,"viability, T/C",[5],91.4%
same,"viability, T/C",[6],84.9%
same,"viability, T/C",[7],81.7%
same,"viability, T/C",[8],72.4%
same,"viability, T/C",[9],87.2%
same,"viability, T/C",[10],93.3%
same,"viability, T/C",[11],93%
same,"viability, T/C",[12],68.9%
same,"viability, T/C",[13],65.3%
same,"viability, T/C",[14],62.8%
same,"viability, T/C",[15],62.6%
same,"viability, T/C",[16],63.9%
same,"viability, T/C",[17],68.3%
same,"viability, T/C",[18],56.1%
same,"viability, T/C",[19],35.3%
same,"viability, T/C",[20],43.5%
same,"viability, T/C",[21],36.6%
same,"viability, T/C",[22],45.3%
same,"viability, T/C",[23],35.6%
same,"viability, T/C",[24],41.4%
same,"viability, T/C",[25],15.6%
same,"viability, T/C",[26],15.8%
same,"viability, T/C",[27],18.3%
same,"viability, T/C",[28],20.3%
same,"viability, T/C",[29],16.3%
same,"viability, T/C",[30],16.5%
same,"viability, T/C",[31],5.58%
same,"viability, T/C",[32],5.76%
same,"viability, T/C",[33],4.24%
same,"viability, T/C",[34],4.31%
same,"viability, T/C",[35],6.92%
same,"viability, T/C",[36],5.37%
CC(C)NCC(C(=O)N1CCN(c2ncnc3c2C(C)CC3O)CC1)c1ccc(Cl)cc1 (configuration not stated) + COc1c(OCCCN2CCOCC2)ccc2c3n(c(=NC(=O)c4cnc(N)nc4)nc12)CCN3,pIC50,second compound 0.00316 µM,5.98
same,pIC50,second compound 0.01 µM,6.25
same,pIC50,second compound 0.0316 µM,6.55
same,pIC50,second compound 0.1 µM,> 7.50
same,pIC50,second compound 0.316 µM,> 7.50
same,pIC50,second compound 1 µM,> 7.50
same,"viability, T/C",[1],82.9%
same,"viability, T/C",[2],77.9%
same,"viability, T/C",[3],64.8%
same,"viability, T/C",[4],50.6%
same,"viability, T/C",[5],34.6%
same,"viability, T/C",[6],20.3%
same,"viability, T/C",[7],71.2%
same,"viability, T/C",[8],64.3%
same,"viability, T/C",[9],59.7%
same,"viability, T/C",[10],41.3%
same,"viability, T/C",[11],26.4%
same,"viability, T/C",[12],15.4%
same,"viability, T/C",[13],56.2%
same,"viability, T/C",[14],56.4%
same,"viability, T/C",[15],47.2%
same,"viability, T/C",[16],40%
same,"viability, T/C",[17],21.9%
same,"viability, T/C",[18],11.6%
same,"viability, T/C",[19],36.6%
same,"viability, T/C",[20],30.3%
same,"viability, T/C",[21],26%
same,"viability, T/C",[22],24.7%
same,"viability, T/C",[23],17.1%
same,"viability, T/C",[24],10.2%
same,"viability, T/C",[25],14.3%
same,"viability, T/C",[26],13.8%
same,"viability, T/C",[27],11.6%
same,"viability, T/C",[28],12.8%
same,"viability, T/C",[29],8.52%
same,"viability, T/C",[30],5.44%
same,"viability, T/C",[31],4.96%
same,"viability, T/C",[32],3.28%
same,"viability, T/C",[33],5.23%
same,"viability, T/C",[34],4.34%
same,"viability, T/C",[35],3.37%
same,"viability, T/C",[36],3.42%
Cn1ncc(Cl)c1-c1cc(C(=O)NC(CN)Cc2cccc(F)c2)sc1Cl (configuration not stated),"viability, T/C",compound 0.0316 µM,84.6% [middle of 4 runs]
same,"viability, T/C",compound 0.1 µM,85% [middle of 4 runs]
same,"viability, T/C",compound 0.316 µM,66.9% [middle of 4 runs]
same,"viability, T/C",compound 1 µM,42.4% [middle of 4 runs]
same,"viability, T/C",compound 3.16 µM,30.8% [middle of 4 runs]
same,"viability, T/C",compound 10 µM,12.7% [middle of 4 runs]
same,IC50,curve of compound,684 nM [middle of 4 runs]
Cn1cnc2c(F)c(Nc3ccc(Br)cc3Cl)c(C(=O)NOCCO)cc21,"viability, T/C",compound 0.00949 µM,80.3% and 86.2% (2×) and 89.4%
same,"viability, T/C",compound 0.03 µM,93.8% [middle of 4 runs]
same,"viability, T/C",compound 0.0949 µM,81.6% [middle of 4 runs]
same,"viability, T/C",compound 0.3 µM,86.9% [middle of 4 runs]
same,"viability, T/C",compound 0.949 µM,72.7% [middle of 4 runs]
same,"viability, T/C",compound 3 µM,49.5% [middle of 4 runs]
